Source: patent US8946302B2, “Selective sigma-1 receptor ligands” (Wisconsin Alumni Research Foundation, priority 2008, dated 2015)
Read-outs that look alike come from different tables or passages of the source. Marks after values point to notes of the source that are not given here.

Key:
[1] = target: T1, purified sigma-1 receptor (Cavia porcellus, UniProt Q60492); assay: Competitive displacement of [3H]-(+)-pentazocine at the pure sigma-1 receptor; format: binding, guinea pig; details: [3H]-(+)-pentazocine, read-out: Ki Pure σ-1R
T1 construct: made in house; host or cells: E. coli BL21 DE3
Experimental: A guinea pig sigma-1 receptor was purified as previously described (Ramachandran et al., Protein Expr. Purif., 2007. 51(2): 283-92). The pMal P2X plasmid (New England Biolabs) encoding the guinea pig sigma-1 receptor on the C-terminus of the E. coli Maltose Binding Protein was used for purification. The sigma-1 receptor on its C-terminus carried a hexa-histadine epitope tag. Protein was expressed in the E. coli strain BL21 DE3 (Novagen) with 0.6 mM IPTG. The E. coli pellet was sonicated and centrifuged at 100,000 g for 1 hour to separate the particulate and soluble fractions. The particulate fraction was extracted with Triton X-100, centrifuged and the extract was loaded onto an amylose resin (New England Biolabs, E-802). After washing the resin with buffer containing 0.5% Triton X-100, the MBP-sigma-1 receptor fusion protein was eluted with buffer containing 10 mM maltose.
The MBP-sigma-1-receptor fusion protein was cleaved with Factor Xa protease (Novagen) at room temperature for 24-48 hours and the cleavage was monitored with SDS-polyacrylamide gel electrophoresis. The sigma-1 receptor from the Factor Xa cleavage was purified with a HIS-Select HC Nickel affinity gel (Sigma-Aldrich P6611) in a batch format. The resin was washed with buffer containing 0.5% Triton X-100 detergent and the beads were separated by a brief centrifugation at 4000 rpm in a microcentrifuge. After washing to remove MBP, the pure sigma-1 receptor was eluted in buffer containing 250 mM imidazole.
To remove the undigested MBP-sigma-1 receptor fusion protein that is carried over in the Ni^2+ purification, the eluate from the Ni^2+ purification was incubated with Anti-MBP antibody conjugated to agarose (Vector Laboratories, Burlingame, Calif.) at 4° C. for 18-24 hours. The beads were separated by centrifugation and the supernatant contained the pure sigma-1 receptor.
Competition ligand binding to the pure sigma-1 receptor was performed as previously described. […] After incubation at 30° C. for 60 minutes, the reaction was terminated by rapid filtration through glass fiber filters (Whatman GF/B), using a Brandel cell harvester (Brandel, Gaithersburg, Md.). The glass fiber filters were pre-soaked in 0.5% polyethyleneimine (PEI) for at least 1 hour at room temperature (˜23° C.). Filters were washed 4 times with 4 mL of ice-cold 50 mM Tris-C1, pH 8.0. Radioactivity was quantified by liquid scintillation counting using a Packard model 1600 CA scintillation counter.

σ-1 Sites = target: T2, σ-1 Sites (Cavia porcellus, UniProt Q60492); assay: σ-1 sites radioligand binding, guinea pig liver membranes (Table 2); details: guinea pig liver membranes
T2 construct: from tissue
Experimental: (§3) Assays for sigma-1 were performed using 10 nM (+)-[^3H]pentazocine in guinea pig liver homogenates (25 μg/well) incubated at 30° C. for 1 hour with several concentrations of competing ligands. After incubation, membranes were harvested on a 0.5% PEI-treated Whatman GF/B filters using a Brandel Cell Harvester. (+)-[^3H]pentazocine binding was determined by liquid scintillation counting. […] Serial concentrations of the compounds evaluated were added to the reactions for 45 minutes at 30° C. and the samples vacuum filtered through 0.5% polyethyleneimine (PEI) treated Whatman GF/B as described above to measure displacement of the radioligands from the sigma receptor subtypes.

σ-2 Sites = target: T3, σ-2 Sites (Rattus norvegicus, UniProt Q5U3Y7); assay: σ-2 sites radioligand binding, rat liver membranes (Table 2)
T3 construct: from tissue
T3 sequence (Q5U3Y7 1-176): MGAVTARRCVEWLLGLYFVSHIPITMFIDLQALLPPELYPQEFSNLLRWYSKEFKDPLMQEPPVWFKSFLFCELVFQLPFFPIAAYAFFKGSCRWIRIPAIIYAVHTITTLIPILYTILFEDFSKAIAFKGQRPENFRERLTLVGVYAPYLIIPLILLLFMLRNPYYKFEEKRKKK
Experimental: as §3

Kv 1.4 K+ channel = target: T4, Kv 1.4 K+ channel (Rattus norvegicus, UniProt P15385); assay: Whole cell patch clamp of Kv 1.4 K+ channel co-expressed with sigma-1 receptor in HEK-293 cells; format: cell-based; details: HEK-293 co-expressing sigma-1 receptor; read-out: EC50 for inhibition of the Kv 1.4 K+ channel
T4 construct: expressed in transfected cells; host or cells: HEK-293, transient, pIRES KvS1R plus pEGFP
Experimental: After transfection (36-48 hours), whole cell K^+ currents were recorded from GFP positive HEK cells under voltage clamp using standard patch clamp techniques, using patch pipettes filled with (in mM) 120 KCl, 10 NaCl, 10 EGTA, 2 MgCl2, 2-4 MgATP, 0.3 NaGTP, 10 HEPES, pH 7.3.
The external solution was composed of (in mM) 130 NaCl, 4 KCl, 2 CaCl2, 1 MgCl2, 10 HEPES, pH 7.4 at room temperature (22-24° C.). Patch pipettes with resistances from 1-3 MΩ were fabricated from borosilicate glass (Garner Glass Co., CA). K^+ channels were activated by voltage step from −120 mV to 20 mV for 250 ms. Axopatch 200B, patch clamp amplifier interfaced to a PC running PCLAMP 7 (Axon Instruments) was used for data acquisition. Drugs were applied by a gravity feed system at a flow rate of 1-3 mL/minute. Series resistance compensation was used for cells with series resistance values higher than 10 MΩ. A 80-90% series resistance compensation was achieved on such cells.
K^+ currents were recorded using whole cell patch clamp technique.

sigma-1 receptor [2] = target: T5, sigma-1 receptor (Cavia porcellus, UniProt Q60492); assay: Competition assay against (+)-[3H]-pentazocine, trace amines; format: binding; set-up: from tissue; details: for sigma-2/sigma-1 Kd ratio: sigma-2 KD / sigma-1 KD
Experimental: (§1) Competitive binding assays were performed as previously described (18) with the exception of testing new ligands shown in Table 4.

sigma-2 receptor [3] = target: T6, sigma-2 receptor (Rattus norvegicus, UniProt Q5U3Y7); assay: Sigma-2 receptor competitive binding, trace amines; set-up: from tissue; host or cells: liver membranes (rat inferred)
T6 sequence (Q5U3Y7 1-176): T3 sequence (Q5U3Y7 1-176)
Experimental: as §1

sigma-1 receptor [4] = target: T7, sigma-1 receptor (Rattus norvegicus, UniProt Q9R0C9); assay: Protection of [125I]-IACoc photolabeling in rat liver membranes; format: binding; details: even at 50 and 100 μM
T7 construct: from tissue; host or cells: rat liver membranes
Experimental: (§4) Rat liver membranes (100 μg/lane) were suspended in the presence or absence of the protecting drugs. […] Percent band intensities are shown compared to controls performed in the absence of protecting ligand (−).

sigma-2 receptor [5] = target: T6, sigma-2 receptor; assay: Protection of [125I]IAF photolabeling of the sigma-2 receptor in rat liver membranes; format: binding; set-up: from tissue; host or cells: rat liver membranes
Experimental: as §4

sigma-1 receptor [6] = target: T5, sigma-1 receptor; assay: Sigma-1 competitive binding, (+)-[3H]pentazocine, guinea pig liver membranes (Example 6); set-up: from tissue; host or cells: guinea pig liver membranes; details: for Kd: guinea pig liver membranes, n = 3, read-out: Sigma 1 KD values;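 on all read-outs here: compounds tested over serial concentrations, 45 min incubation at 30 °C with membrane preparations, read-out is displacement of bound radioligand from the receptor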
Experimental: Minced frozen rat livers or guinea pig livers (65 g) were thawed in 100 mL homogenization buffer (10 mM phosphate buffer pH 7.4 containing 0.32M sucrose, 1 M MgSO4, 0.5 M EGTA, 1 mM phenylmethylsulphonyl fluoride (PMSF), 10 μg/mlleupeptin, 1 μg/ml pepstatin A, 10 μg/ml p-toluenesulfonyl-L-arginine methyl ester (TAME) and then homogenized on ice with a Brinkman polytron homogenizer (setting 6, 4 bursts of 10 second each) followed by a glass homogenizer (Teflon pestle by 6 slow passes at 3,000 rpm). The homogenized tissues were then centrifuged at 17,000 g for 10 minutes. The supernatants were re-centrifuged at 100,000 g for 1 hour. The microsomal pellets were resuspended in homogenization buffer, snap frozen with dry ice-ethanol, and stored at −80° C. at a final protein concentration of 20 mg/mL.
as §3

sigma-2 receptor [7] = target: T6, sigma-2 receptor; assay: Sigma-2 competitive binding, [3H]-DTG with (+)-pentazocine, rat liver membranes (Example 6); set-up: from tissue; host or cells: rat liver membranes; details: rat liver membranes, n = 3; read-out: Sigma2 KD values
MB-MDA-231 = assay: Cytotoxicity assay MB-MDA-231; format: cell-based; details: Homo sapiens, HU Breast, read-out: IC50 (SE) growth inhibition
Experimental: (§2) Multi-plex cytotoxicity assays were performed by the Keck-UWCCC Small Molecule Screening Facility (Madison, Wis.). Specific methodology can be found online at http://hts.wisc.edu/Resources.htm#mpa.

tumor cell lines = assay: Cytotoxicity assays, various tumor cell lines (statements in words); format: cell-based, human
Experimental: Because sigma-1 receptors are overexpressed in numerous tumor cell lines, which include breast cancer, lung carcinoma, renal carcinoma, colon carcinoma, sarcoma, brain tumors, melanoma, glioblastoma, neuroblastoma, and prostate cancer, the ability of the compounds to inhibit the growth of various tumor cell lines were tested.
as §2

HCT-45 = assay: Cytotoxicity assay HCT-45; format: cell-based; details: Homo sapiens, HU Colorectal, read-out: IC50 (SE) growth inhibition
Experimental: as §2

NCI-H460 = assay: Cytotoxicity assay NCI-H460; format: cell-based; details: Homo sapiens, HU lung, read-out: IC50 (SE) growth inhibition
Experimental: as §2

HT-29 = assay: Cytotoxicity assay HT-29; format: cell-based; details: Homo sapiens, HU Colorectal, read-out: IC50 (SE) growth inhibition
Experimental: as §2

SF268 = assay: Cytotoxicity assay SF268; format: cell-based; details: Homo sapiens, SF-268, HU CNS, read-out: IC50 (SE) growth inhibition
Experimental: as §2

MCP10A = assay: Cytotoxicity assay MCP10A; format: cell-based; details: Homo sapiens, HU Breast, read-out: IC50 (SE) growth inhibition
Experimental: as §2

Du145 = assay: Cytotoxicity assay Du145; format: cell-based; details: Homo sapiens, DU-145, HU Prostate, read-out: IC50 (SE) growth inhibition
Experimental: as §2

HI299 = assay: Cytotoxicity assay HI299; format: cell-based; details: Homo sapiens, HU Lung, read-out: IC50 (SE) growth inhibition
Experimental: as §2

MCF7 = assay: Cytotoxicity assay MCF7; format: cell-based; details: Homo sapiens, HU Breast, read-out: IC50 (SE) growth inhibition
Experimental: as §2

A549 = assay: Cytotoxicity assay A549; format: cell-based; details: Homo sapiens, HU lung, read-out: IC50 (SE) growth inhibition
Experimental: as §2

SKOV-3 = assay: Cytotoxicity assay SKOV-3; format: cell-based; details: Homo sapiens, SK-OV-3, HU Ovarian, read-out: IC50 (SE) growth inhibition
Experimental: as §2

sigma-2 receptor [8] = target: T6, sigma-2 receptor; set-up: from tissue; host or cells: rat liver membranes; details: from Fontanilla et al. Biochemistry 2008; cited from earlier work
sigma-1 receptor [9] = target: T5, sigma-1 receptor; set-up: from tissue; host or cells: guinea pig liver membranes; details: from Fontanilla et al. Biochemistry 2008; cited from earlier work

T5 sequence (Q60492 whole entry): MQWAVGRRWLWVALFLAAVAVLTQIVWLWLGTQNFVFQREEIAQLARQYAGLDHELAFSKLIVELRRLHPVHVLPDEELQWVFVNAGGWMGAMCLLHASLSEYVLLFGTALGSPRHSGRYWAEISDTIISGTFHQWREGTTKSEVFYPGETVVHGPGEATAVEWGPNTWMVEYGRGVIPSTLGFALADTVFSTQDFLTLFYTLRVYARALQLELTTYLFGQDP
T7 sequence (Q9R0C9 whole entry): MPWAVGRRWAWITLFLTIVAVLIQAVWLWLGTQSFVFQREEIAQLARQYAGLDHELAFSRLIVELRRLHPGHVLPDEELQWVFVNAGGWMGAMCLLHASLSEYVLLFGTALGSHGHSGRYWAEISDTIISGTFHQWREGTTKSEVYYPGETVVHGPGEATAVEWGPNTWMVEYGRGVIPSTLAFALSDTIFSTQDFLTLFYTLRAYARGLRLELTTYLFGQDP
T4 sequence (Q9R0C9 whole entry partner): as the sequence (Q9R0C9 whole entry) above
T4 sequence (P15385 whole entry): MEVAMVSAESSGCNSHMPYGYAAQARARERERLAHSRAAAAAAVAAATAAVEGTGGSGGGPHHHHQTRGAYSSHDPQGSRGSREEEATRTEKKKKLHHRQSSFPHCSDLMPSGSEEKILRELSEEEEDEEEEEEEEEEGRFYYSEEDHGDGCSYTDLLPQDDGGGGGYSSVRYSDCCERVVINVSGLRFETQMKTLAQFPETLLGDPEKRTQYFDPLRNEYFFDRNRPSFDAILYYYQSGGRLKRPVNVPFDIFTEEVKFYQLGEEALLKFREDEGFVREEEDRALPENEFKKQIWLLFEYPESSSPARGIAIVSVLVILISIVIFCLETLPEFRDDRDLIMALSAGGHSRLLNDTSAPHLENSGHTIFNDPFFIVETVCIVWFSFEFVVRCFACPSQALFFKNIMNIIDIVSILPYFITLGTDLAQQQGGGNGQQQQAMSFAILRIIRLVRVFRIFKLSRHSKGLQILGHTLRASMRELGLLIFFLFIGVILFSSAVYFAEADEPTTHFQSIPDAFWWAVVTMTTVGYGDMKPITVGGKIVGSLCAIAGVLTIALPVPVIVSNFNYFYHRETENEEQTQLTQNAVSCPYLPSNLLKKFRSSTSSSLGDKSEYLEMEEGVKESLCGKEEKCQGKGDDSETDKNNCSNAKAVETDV
T2 sequence (Q60492 whole entry): as the sequence (Q60492 whole entry) above
T1 sequence (Q60492 whole entry): as above

In the case of `CCCCCCCNCCCc1ccccc1` [Compound 1c, N-(3-Phenylpropyl)heptane-1-amine], the Ki [1] is reported as 0.0184 µM, the Ki (σ-1 Sites) is reported as 0.015 µM and the Ki (σ-2 Sites) is reported as 0.033 µM. It also gave an EC50 (Kv 1.4 K+ channel) of 10 µM.

In the case of `NCCc1c[nH]c2ccccc12` [Tryptamine], the Kd (sigma-1 receptor [2]) is reported as 432 µM, the Kd (sigma-2 receptor [3]; read-out: Sigma-2R KD) is reported as 4.91 µM and the “protection of sigma-1 receptor [125I]-IACoc photolabeling” value (sigma-1 receptor [4]) is reported as “protected minimally”. For the same compound, the “protection of [125I]IAF sigma-2 receptor photolabeling” value (sigma-2 receptor [5]; 10 μM) was 47%, the “protection of [125I]IAF sigma-2 receptor photolabeling” value (sigma-2 receptor [5]; 50 μM) was 78% and the “protection of [125I]IAF sigma-2 receptor photolabeling” value (sigma-2 receptor [5]; 100 μM) was 79%.

In the case of `CCCCN(CCCC)C(=O)CCc1ccc(F)cc1` [Compound 5, N,N-Dibutyl-3-(4-fluorophenyl)propionamide], the “Ratio (σ2/σ1)” value (sigma-1 receptor [6]) is reported as 3.94, the Kd (sigma-1 receptor [6]) is reported as 32.1 µM and the Kd (sigma-2 receptor [7]) is reported as 126 µM. For the same compound, the melting point was 162 to 164 °C.

In the case of `CNCCc1ccccc1` [N-methylPEA], the “sigma-2/sigma-1 Kd ratio” value (sigma-1 receptor [2]) is reported as 0.366.

Compound `CNCCc1ccc(O)cc1` [N-methyltyramine, 4-(2-(methylamino)ethyl)phenol] has a Kd (sigma-2 receptor [3]; read-out: Sigma-2R KD) of 6.61 µM.

In the case of `CCCN(CCCc1ccc(F)cc1)Cc1ccc(N)cc1` [Compound 17, N-Propyl-N-(4-amino-benzyl)-3-(4-fluorophenyl)propylamine], the IC50 (MB-MDA-231) is reported as > 100 µM, the “cytotoxicity / tumor cell growth inhibition” value (tumor cell lines) is reported as “lacked any cytotoxic properties” and the “Ratio (σ2/σ1)” value (sigma-1 receptor [6]) is reported as 13.11 ^. The Kd (sigma-1 receptor [6]) was 0.164 µM, the IC50 (HCT-45) was > 100 µM and the IC50 (NCI-H460) was > 100 µM. For the same compound, the IC50 (HT-29) was > 100 µM, the IC50 (SF268) was > 100 µM and the IC50 (MCP10A) was > 100 µM. The IC50 (Du145) was > 100 µM, the Kd (sigma-2 receptor [7]) was 2.15 µM and the IC50 (HI299) was > 100 µM. For the same compound, the IC50 (MCF7) was > 100 µM, the IC50 (A549) was > 100 µM and the IC50 (SKOV-3) was > 100 µM.

Compound `CCCCCCCCN(CCCCCCCC)C(=O)CCc1ccc(F)cc1` [Compound 4, N,N-Dioctyl-3-(4-fluorophenyl)propionamide] has a melting point of 190 to 193 °C.

In the case of `CCCN(CCCc1ccc(F)cc1)CCc1ccc(N=[N+]=[N-])c(I)c1` [Compound 19], the IC50 (MB-MDA-231) is listed as 21.6 µM, the Kd (sigma-2 receptor [8]) is listed as 1.29 µM and the “cytotoxicity / tumor cell growth inhibition” value (tumor cell lines) is listed as “non-specifically cytotoxic in almost all the cell lines tested”. The IC50 (HCT-45) was 54.1 µM, the IC50 (NCI-H460) was 40.3 µM and the Kd (sigma-1 receptor [9]) was 7.24 µM. The “Ratio (σ2/σ1)” value (sigma-1 receptor [9]) was 0.178^c, the IC50 (HT-29) was 36.4 µM and the IC50 (SF268) was 38.8 µM. It also gave an IC50 (MCP10A) of 86.6 µM, an IC50 (Du145) of 13.1 µM and an IC50 (HI299) of 90.8 µM. For the same compound, the IC50 (MCF7) was 16.8 µM, the IC50 (A549) was > 100 µM and the IC50 (SKOV-3) was > 100 µM.

`NCCc1ccccc1` [Phenethylamine] gave a Kd (sigma-1 receptor [2]) of 97.4 µM and a Kd (sigma-2 receptor [3]) of 7.31 µM.

For `CN(C)CCc1ccccc1` [N,N′-dimethylPEA, N,N-dimethyl-2-phenylethylamine], the “sigma-2/sigma-1 Kd ratio” value (sigma-1 receptor [2]) was 1.642.
